Assay results as given in ChEMBL document CHEMBL1156482, “Molecular mechanism of action of monocyclam versus bicyclam non-peptide antagonists in the CXCR4 chemokine receptor” (J Biol Chem, 2007).
Activity calls are given as the source filed them. The calls are words filed in the database; no cut-off is given here.

How the values were obtained:
[1] = system: Human immunodeficiency virus 1; test: Antiviral activity against HIV1 NL43 infected in U87.CD4 cells expressing human CXCR4 E288A mutant; type: functional, organism-based
[2] = target: T1, C-X-C chemokine receptor type 4 (Homo sapiens, UniProt P61073, H203A); test: (§1) Displacement of [125I]12G5 antibody from transmembrane domain 5 of human CXCR4 H203A mutant expressed in COS7 cells; type: cell-based, COS-7
[3] = system: C-X-C chemokine receptor type 4 (Homo sapiens), P61073 [H203A]; test: as §1; type: cell-based; details: COS-7
[4] = system: Human immunodeficiency virus 1; test: Antiviral activity against HIV1 clinical isolate 10 infected in U87.CD4 cells expressing human CXCR4 D171ND262N mutant; type: functional, organism-based; details: Human immunodeficiency virus 1, U87.CD4
[5] = system: C-X-C chemokine receptor type 4 (Homo sapiens), P61073 [A175F]; test: (§2) Antagonist activity at human CXCR4 A175F mutant expressed in COS7 cells coexpressing G protein Gqi4myr assessed as inhibition of CXCL12-induced phosphatidylinositol turnover; type: functional, cell-based; details: COS-7
[6] = target: T2, C-X-C chemokine receptor type 4 (Homo sapiens, UniProt P61073, A175F); test: as §2; type: functional, cell-based, COS-7
[7] = target: C-X-C chemokine receptor type 4 (Homo sapiens, UniProt P61073, N176A); test: (§3) Displacement of [125I]12G5 antibody from extracellular loop 2 of human CXCR4 N176A mutant expressed in COS7 cells; type: cell-based, COS-7
[8] = system: C-X-C chemokine receptor type 4 (Homo sapiens), P61073 [N176A]; test: as §3; type: cell-based; details: COS-7
[9] = target: C-X-C chemokine receptor type 4 (Homo sapiens, UniProt P61073, H281A); test: (§4) Antagonist activity at human CXCR4 H281A mutant expressed in COS7 cells coexpressing G protein Gqi4myr assessed as inhibition of CXCL12-induced phosphatidylinositol turnover; type: functional, cell-based, COS-7
[10] = system: C-X-C chemokine receptor type 4 (Homo sapiens), P61073 [H281A]; test: as §4; type: functional, cell-based; details: COS-7
[11] = system: C-X-C chemokine receptor type 4 (Homo sapiens), P61073 [I259A]; test: (§5) Antagonist activity at transmembrane domain 6 of human CXCR4 I259A mutant expressed in COS7 cells coexpressing G protein Gqi4myr assessed as inhibition of CXCL12-induced phosphatidylinositol turnover; type: functional, cell-based; details: COS-7
[12] = target: C-X-C chemokine receptor type 4 (Homo sapiens, UniProt P61073, I259A); test: as §5; type: functional, cell-based, COS-7
[13] = target: C-X-C chemokine receptor type 4 (Homo sapiens, UniProt P61073, L120F); test: (§6) Antagonist activity at human CXCR4 L120F mutant expressed in COS7 cells coexpressing G protein Gqi4myr assessed as inhibition of CXCL12-induced phosphatidylinositol turnover; type: functional, cell-based, COS-7
[14] = system: C-X-C chemokine receptor type 4 (Homo sapiens), P61073 [L120F]; test: as §6; type: functional, cell-based; details: COS-7
[15] = system: C-X-C chemokine receptor type 4 (Homo sapiens), P61073 [D187A]; test: (§7) Displacement of [125I]12G5 antibody from extracellular loop 2 of human CXCR4 D187A mutant expressed in COS7 cells; type: cell-based; details: COS-7
[16] = target: C-X-C chemokine receptor type 4 (Homo sapiens, UniProt P61073, D187A); test: as §7; type: cell-based, COS-7
[17] = target: T1, C-X-C chemokine receptor type 4; test: (§8) Antagonist activity at human CXCR4 H203A mutant expressed in COS7 cells coexpressing G protein Gqi4myr assessed as inhibition of CXCL12-induced phosphatidylinositol turnover; type: functional, cell-based, COS-7
[18] = system: C-X-C chemokine receptor type 4 (Homo sapiens), P61073 [H203A]; test: as §8; type: functional, cell-based; details: COS-7
[19] = system: C-X-C chemokine receptor type 4 (Homo sapiens), P61073 [G207W]; test: (§9) Displacement of [125I]12G5 antibody from transmembrane domain 5 of human CXCR4 G207W mutant expressed in COS7 cells; type: cell-based; details: COS-7
[20] = target: C-X-C chemokine receptor type 4 (Homo sapiens, UniProt P61073, G207W); test: as §9; type: cell-based, COS-7
[21] = system: C-X-C chemokine receptor type 4 (Homo sapiens), P61073 [F174A]; test: (§10) Displacement of [125I]12G5 antibody from transmembrane domain 4 of human CXCR4 F174A mutant expressed in COS7 cells; type: cell-based; details: COS-7
[22] = target: C-X-C chemokine receptor type 4 (Homo sapiens, UniProt P61073, F174A); test: as §10; type: cell-based, COS-7
[23] = system: Human immunodeficiency virus 1; test: Antiviral activity against HIV1 NDK infected in U87.CD4 cells expressing human CXCR4 H281A mutant; type: functional, organism-based; details: Human immunodeficiency virus 1, NDK
[24] = system: Human immunodeficiency virus 1; test: Antiviral activity against HIV1 NL43 infected in U87.CD4 cells expressing human CXCR4 D171N/D262N mutant; type: functional, organism-based
[25] = system: Human immunodeficiency virus 1; test: Antiviral activity against HIV1 NDK infected in U87.CD4 cells expressing human CXCR4 D262N mutant; type: functional, organism-based; details: Human immunodeficiency virus 1, NDK
[26] = system: Human immunodeficiency virus 1; test: Antiviral activity against HIV1 clinical isolate 10 infected U87.CD4 cells expressing human CXCR4 E288A mutant; type: functional, organism-based; details: Human immunodeficiency virus 1, U87.CD4
[27] = system: C-X-C chemokine receptor type 4 (Homo sapiens), P61073 [A175F]; test: (§11) Displacement of [125I]12G5 antibody from extracellular loop 2 of human CXCR4 A175F mutant expressed in COS7 cells; type: cell-based; details: COS-7
[28] = target: T2, C-X-C chemokine receptor type 4; test: as §11; type: cell-based, COS-7
[29] = system: C-X-C chemokine receptor type 4 (Homo sapiens), P61073 [Q200W]; test: (§12) Displacement of [125I]12G5 antibody from transmembrane domain 5 of human CXCR4 Q200W mutant expressed in COS7 cells; type: cell-based; details: COS-7
[30] = target: C-X-C chemokine receptor type 4 (Homo sapiens, UniProt P61073, Q200W); test: as §12; type: cell-based, COS-7
[31] = target: C-X-C chemokine receptor type 4 (Homo sapiens, UniProt P61073, V196A); test: (§13) Antagonist activity at human CXCR4 V196A mutant expressed in COS7 cells coexpressing G protein Gqi4myr assessed as inhibition of CXCL12-induced phosphatidylinositol turnover; type: functional, cell-based, COS-7
[32] = system: C-X-C chemokine receptor type 4 (Homo sapiens), P61073 [V196A]; test: as §13; type: functional, cell-based; details: COS-7
[33] = system: Human immunodeficiency virus 1; test: Antiviral activity against HIV1 NL43 infected in U87.CD4 cells expressing human CXCR4 H281A mutant; type: functional, organism-based; details: Human immunodeficiency virus 1, NL43, U87.CD4
[34] = system: Human immunodeficiency virus 1; test: Antiviral activity against HIV1 NDK infected in U87.CD4 cells expressing human CXCR4 D171N mutant; type: functional, organism-based; details: Human immunodeficiency virus 1, NDK
[35] = target: C-X-C chemokine receptor type 4 (Homo sapiens, UniProt P61073, D171N); test: (§14) Antagonist activity at human CXCR4 D171N mutant expressed in COS7 cells coexpressing G protein Gqi4myr assessed as inhibition of CXCL12-induced phosphatidylinositol turnover; type: functional, cell-based, COS-7
[36] = system: C-X-C chemokine receptor type 4 (Homo sapiens), P61073 [D171N]; test: as §14; type: functional, cell-based; details: COS-7
[37] = system: C-X-C chemokine receptor type 4 (Homo sapiens), P61073 [F172A]; test: (§15) Displacement of [125I]12G5 antibody from transmembrane domain 4 of human CXCR4 F172A mutant expressed in COS7 cells; type: cell-based; details: COS-7
[38] = target: C-X-C chemokine receptor type 4 (Homo sapiens, UniProt P61073, F172A); test: as §15; type: cell-based, COS-7
[39] = system: C-X-C chemokine receptor type 4 (Homo sapiens), P61073 [I259W]; test: (§16) Displacement of [125I]12G5 antibody from transmembrane domain 6 of human CXCR4 I259W mutant expressed in COS7 cells; type: cell-based; details: COS-7
[40] = target: C-X-C chemokine receptor type 4 (Homo sapiens, UniProt P61073, I259W); test: as §16; type: cell-based, COS-7
[41] = system: Human immunodeficiency virus 1; test: Antiviral activity against HIV1 clinical isolate 10 infected in U87.CD4 cells expressing human CXCR4 D171N mutant; type: functional, organism-based; details: Human immunodeficiency virus 1, U87.CD4

T2 sequence (P61073 whole entry A175F): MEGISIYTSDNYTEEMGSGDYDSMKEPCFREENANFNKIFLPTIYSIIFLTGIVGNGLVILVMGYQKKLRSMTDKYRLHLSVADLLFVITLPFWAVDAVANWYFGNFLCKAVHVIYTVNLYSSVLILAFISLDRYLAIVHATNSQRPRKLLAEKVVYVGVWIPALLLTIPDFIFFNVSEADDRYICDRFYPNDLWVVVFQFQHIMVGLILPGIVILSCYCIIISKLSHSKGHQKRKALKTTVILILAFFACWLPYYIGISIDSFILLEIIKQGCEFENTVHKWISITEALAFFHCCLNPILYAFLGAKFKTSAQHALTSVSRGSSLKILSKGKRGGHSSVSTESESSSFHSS
Sequence of C-X-C chemokine receptor type 4 (Homo sapiens), P61073 [A175F] (P61073 whole entry A175F): as above
T1 sequence (P61073 whole entry H203A, the tested form may be a part): as the sequence (P61073 whole entry A175F) above, with F175A, H203A counted along it
Sequence of C-X-C chemokine receptor type 4 (Homo sapiens), P61073 [H203A] (P61073 whole entry H203A, the tested form may be a part): as the sequence (P61073 whole entry A175F) above, with F175A, H203A counted along it
Sequence of C-X-C chemokine receptor type 4 (Homo sapiens, UniProt P61073, V196A) (P61073 whole entry V196A): as the sequence (P61073 whole entry A175F) above, with F175A, V196A counted along it
Sequence of C-X-C chemokine receptor type 4 (Homo sapiens), P61073 [V196A] (P61073 whole entry V196A): as the sequence (P61073 whole entry A175F) above, with F175A, V196A counted along it
Sequence of C-X-C chemokine receptor type 4 (Homo sapiens), P61073 [D171N] (P61073 whole entry D171N, the tested form may be a part): as the sequence (P61073 whole entry A175F) above, with D171N, F175A counted along it
Sequence of C-X-C chemokine receptor type 4 (Homo sapiens, UniProt P61073, D171N) (P61073 whole entry D171N): as the sequence (P61073 whole entry A175F) above, with D171N, F175A counted along it
Sequence of C-X-C chemokine receptor type 4 (Homo sapiens), P61073 [G207W] (P61073 whole entry G207W, the tested form may be a part): as the sequence (P61073 whole entry A175F) above, with F175A, G207W counted along it
Sequence of C-X-C chemokine receptor type 4 (Homo sapiens, UniProt P61073, G207W) (P61073 whole entry G207W, the tested form may be a part): as the sequence (P61073 whole entry A175F) above, with F175A, G207W counted along it
Sequence of C-X-C chemokine receptor type 4 (Homo sapiens), P61073 [Q200W] (P61073 whole entry Q200W, the tested form may be a part): as the sequence (P61073 whole entry A175F) above, with F175A, Q200W counted along it
Sequence of C-X-C chemokine receptor type 4 (Homo sapiens, UniProt P61073, Q200W) (P61073 whole entry Q200W): as the sequence (P61073 whole entry A175F) above, with F175A, Q200W counted along it
Sequence of C-X-C chemokine receptor type 4 (Homo sapiens), P61073 [L120F] (P61073 whole entry L120F): as the sequence (P61073 whole entry A175F) above, with L120F, F175A counted along it
Sequence of C-X-C chemokine receptor type 4 (Homo sapiens, UniProt P61073, L120F) (P61073 whole entry L120F): as the sequence (P61073 whole entry A175F) above, with L120F, F175A counted along it
Sequence of C-X-C chemokine receptor type 4 (Homo sapiens, UniProt P61073, I259W) (P61073 whole entry I259W): as the sequence (P61073 whole entry A175F) above, with F175A, I259W counted along it
Sequence of C-X-C chemokine receptor type 4 (Homo sapiens), P61073 [I259W] (P61073 whole entry I259W, the tested form may be a part): as the sequence (P61073 whole entry A175F) above, with F175A, I259W counted along it
Sequence of C-X-C chemokine receptor type 4 (Homo sapiens), P61073 [H281A] (P61073 whole entry H281A, the tested form may be a part): as the sequence (P61073 whole entry A175F) above, with F175A, H281A counted along it
Sequence of C-X-C chemokine receptor type 4 (Homo sapiens, UniProt P61073, H281A) (P61073 whole entry H281A): as the sequence (P61073 whole entry A175F) above, with F175A, H281A counted along it
Sequence of C-X-C chemokine receptor type 4 (Homo sapiens), P61073 [N176A] (P61073 whole entry N176A): as the sequence (P61073 whole entry A175F) above, with F175A, N176A counted along it
Sequence of C-X-C chemokine receptor type 4 (Homo sapiens, UniProt P61073, N176A) (P61073 whole entry N176A): as the sequence (P61073 whole entry A175F) above, with F175A, N176A counted along it
Sequence of C-X-C chemokine receptor type 4 (Homo sapiens, UniProt P61073, F174A) (P61073 whole entry F174A): as the sequence (P61073 whole entry A175F) above, with F174A, F175A counted along it
Sequence of C-X-C chemokine receptor type 4 (Homo sapiens), P61073 [F174A] (P61073 whole entry F174A, the tested form may be a part): as the sequence (P61073 whole entry A175F) above, with F174A, F175A counted along it
Sequence of C-X-C chemokine receptor type 4 (Homo sapiens), P61073 [D187A] (P61073 whole entry D187A): as the sequence (P61073 whole entry A175F) above, with F175A, D187A counted along it
Sequence of C-X-C chemokine receptor type 4 (Homo sapiens, UniProt P61073, D187A) (P61073 whole entry D187A): as the sequence (P61073 whole entry A175F) above, with F175A, D187A counted along it
Sequence of C-X-C chemokine receptor type 4 (Homo sapiens, UniProt P61073, F172A) (P61073 whole entry F172A, the tested form may be a part): as the sequence (P61073 whole entry A175F) above, with F172A, F175A counted along it
Sequence of C-X-C chemokine receptor type 4 (Homo sapiens), P61073 [F172A] (P61073 whole entry F172A, the tested form may be a part): as the sequence (P61073 whole entry A175F) above, with F172A, F175A counted along it
Sequence of C-X-C chemokine receptor type 4 (Homo sapiens), P61073 [I259A] (P61073 whole entry I259A, the tested form may be a part): as the sequence (P61073 whole entry A175F) above, with F175A, I259A counted along it
Sequence of C-X-C chemokine receptor type 4 (Homo sapiens, UniProt P61073, I259A) (P61073 whole entry I259A): as the sequence (P61073 whole entry A175F) above, with F175A, I259A counted along it

SMILES: c1ccc(CNCc2ccc(CN3CCCNCCNCCCNCC3)cc2)nc1
- Activity [1]: inactive
- Ki [2]: 440 nM
- logKi [3]: -6.35
- IC50 [4]: 4040 nM
- logIC50 [5]: -5.89
- Ki [6]: 1300 nM
- Ki [7]: 100 nM
- logKi [8]: -6.98
- Ki [9]: 1600 nM
- logIC50 [10]: -5.8
- logIC50 [11]: -7.55
- Ki [12]: 30 nM
- Ki [13]: 10 nM
- logIC50 [14]: -8.18
- logKi [15]: -6.27
- Ki [16]: 530 nM
- Ki [17]: 40 nM
- logIC50 [18]: -7.43
- logKi [19]: -6.88
- Ki [20]: 130 nM
- logKi [21]: -6.01
- Ki [22]: 980 nM
- IC50 [23]: 37 nM
- Activity [24]: Active
- IC50 [25]: 5380 nM
- IC50 [26]: 1570 nM
- logKi [27]: -3.67
- Ki [28]: 215000 nM
- logKi [29]: -5.94
- Ki [30]: 1200 nM
- Ki [31]: 200 nM
- logIC50 [32]: -7.71
- IC50 [33]: > 1100 nM
- IC50 [34]: 22000 nM
- Ki [35]: 180 nM
- logIC50 [36]: -6.76
- logKi [37]: -6.25
- Ki [38]: 560 nM
- logKi [39]: -4.75
- Ki [40]: 18000 nM
- IC50 [41]: 183000 nM
